Laboratory results from patent US8273880B2, “Pyrazole compounds with inhibitory activity against ROS kinase” (Korea Institute of Science and Technology, priority 2009, dated 2012).

Columns and labels:
Test in all cases: HotSpot kinase screening over 45 different kinases, single dose 10 μM
Type in all cases: biochemical
Settings in all cases: single dose concentration of 10 μM, 10 μM ATP
ABL1 = target: T1, ABL1 (Homo sapiens, UniProt P00519)
T1 construct: purchased Reaction Biology Corporation
Experimental: (§1) Kinase screening was performed using a “HotSpot” assay platform commercially available from Reaction Biology Corporation. For this kinase screening, reaction buffers were based on 20 mM Hepes (pH 7.5), 10 mM MgCl2, 1 mM EGTA, 0.02% Brij35, 0.02 mg/mL BSA, 0.1 mM Na3VO4, 2 mM DTT, and 1% DMSO, with supplementary factors necessary for respective kinase reactions added thereto. In each enzyme reaction, […] of each kinase was used together with a fresh reaction buffer and appropriate supplementary factors. A solution of each compound in DMSO was added in a suitable concentration to the reaction buffer. Kinase reaction started with the introduction of […] (specific activity […]) and continued for 2 hours at room temperature.
(§2) 1) Screening of Compounds Over 45 Different Kinases
(§3) Each compound was tested twice at a single dose concentration of 10 μM. […] The reaction was performed with 10 μM ATP.

AKT1 (dPH, S473D) = target: T2, AKT1 (dPH, S473D) (Homo sapiens, UniProt P31749, S473D)
T2 construct: AKT1 (dPH, S473D); purchased Reaction Biology Corporation
Experimental: as §1, §2, §3

Aurora A = target: T3, Aurora A (Homo sapiens, UniProt O14965)
T3 construct: purchased Reaction Biology Corporation
Experimental: as §1, §2, §3

BRAF = target: T4, BRAF (Homo sapiens, UniProt P15056)
T4 construct: purchased Reaction Biology Corporation
Experimental: as §1, §2, §3

CDK1/cyclinB = target: T5, CDK1/cyclinB (Homo sapiens, UniProt P06493)
T5 construct: purchased Reaction Biology Corporation
Experimental: as §1, §2, §3

CHK1 = target: T6, CHK1 (Homo sapiens, UniProt O14757)
T6 construct: purchased Reaction Biology Corporation
Experimental: as §1, §2, §3

CK1epsilon = target: T7, CK1epsilon (Homo sapiens, UniProt P49674)
T7 construct: purchased Reaction Biology Corporation
Experimental: as §1, §2, §3

DAPK1 = target: T8, DAPK1 (Homo sapiens, UniProt P53355)
T8 construct: purchased Reaction Biology Corporation
Experimental: as §1, §2, §3

DNA-PK = target: T9, DNA-PK (Homo sapiens, UniProt P78527)
T9 construct: purchased Reaction Biology Corporation
Experimental: as §1, §2, §3

EGFR = target: T10, EGFR (Homo sapiens, UniProt P00533)
T10 construct: purchased Reaction Biology Corporation
Experimental: as §1, §2, §3

EPHA1 = target: T11, EPHA1 (Homo sapiens, UniProt P21709)
T11 construct: purchased Reaction Biology Corporation
Experimental: as §1, §2, §3

FAK/PTK2 = target: T12, FAK/PTK2 (Homo sapiens, UniProt Q05397)
T12 construct: purchased Reaction Biology Corporation
Experimental: as §1, §2, §3

FGFR1 = target: T13, FGFR1 (Homo sapiens, UniProt P11362)
T13 construct: purchased Reaction Biology Corporation
Experimental: as §1, §2, §3

FGR = target: T14, FGR (Homo sapiens, UniProt P09769)
T14 construct: purchased Reaction Biology Corporation
Experimental: as §1, §2, §3

FLT1 = target: T15, FLT1 (Homo sapiens, UniProt P17948)
T15 construct: purchased Reaction Biology Corporation
Experimental: as §1, §2, §3

FYN = target: T16, FYN (Homo sapiens, UniProt P06241)
T16 construct: purchased Reaction Biology Corporation
Experimental: as §1, §2, §3

HIPK1 = target: T17, HIPK1 (Homo sapiens, UniProt Q86Z02)
T17 construct: purchased Reaction Biology Corporation
Experimental: as §1, §2, §3

IKKa/CHUK = target: T18, IKKa/CHUK (Homo sapiens, UniProt O15111)
T18 construct: purchased Reaction Biology Corporation
Experimental: as §1, §2, §3

IR = target: T19, IR (Homo sapiens, UniProt P06213)
T19 construct: purchased Reaction Biology Corporation
Experimental: as §1, §2, §3

JAK1 = target: T20, JAK1 (Homo sapiens, UniProt P23458)
T20 construct: purchased Reaction Biology Corporation
Experimental: as §1, §2, §3

JNK1a1 = target: T21, JNK1a1 (Homo sapiens, UniProt P45983)
T21 construct: purchased Reaction Biology Corporation
Experimental: as §1, §2, §3

KDR/VEGFR2 = target: T22, KDR/VEGFR2 (Homo sapiens, UniProt P35968)
T22 construct: purchased Reaction Biology Corporation
Experimental: as §1, §2, §3

LCK = target: T23, LCK (Homo sapiens, UniProt P06239)
T23 construct: purchased Reaction Biology Corporation
Experimental: as §1, §2, §3

[1] = compared to enzyme activity in DMSO control

T3 sequence (O14965 whole entry): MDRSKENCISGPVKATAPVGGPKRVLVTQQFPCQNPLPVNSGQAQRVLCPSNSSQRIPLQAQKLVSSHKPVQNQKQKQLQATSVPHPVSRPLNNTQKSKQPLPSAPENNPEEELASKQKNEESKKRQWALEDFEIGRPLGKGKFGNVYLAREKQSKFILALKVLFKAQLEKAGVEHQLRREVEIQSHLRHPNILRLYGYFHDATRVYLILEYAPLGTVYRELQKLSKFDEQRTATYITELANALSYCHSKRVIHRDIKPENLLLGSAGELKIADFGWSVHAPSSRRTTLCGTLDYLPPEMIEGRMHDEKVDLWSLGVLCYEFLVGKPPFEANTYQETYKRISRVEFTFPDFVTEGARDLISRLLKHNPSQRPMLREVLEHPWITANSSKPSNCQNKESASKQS
T10 sequence (P00533 25-1210): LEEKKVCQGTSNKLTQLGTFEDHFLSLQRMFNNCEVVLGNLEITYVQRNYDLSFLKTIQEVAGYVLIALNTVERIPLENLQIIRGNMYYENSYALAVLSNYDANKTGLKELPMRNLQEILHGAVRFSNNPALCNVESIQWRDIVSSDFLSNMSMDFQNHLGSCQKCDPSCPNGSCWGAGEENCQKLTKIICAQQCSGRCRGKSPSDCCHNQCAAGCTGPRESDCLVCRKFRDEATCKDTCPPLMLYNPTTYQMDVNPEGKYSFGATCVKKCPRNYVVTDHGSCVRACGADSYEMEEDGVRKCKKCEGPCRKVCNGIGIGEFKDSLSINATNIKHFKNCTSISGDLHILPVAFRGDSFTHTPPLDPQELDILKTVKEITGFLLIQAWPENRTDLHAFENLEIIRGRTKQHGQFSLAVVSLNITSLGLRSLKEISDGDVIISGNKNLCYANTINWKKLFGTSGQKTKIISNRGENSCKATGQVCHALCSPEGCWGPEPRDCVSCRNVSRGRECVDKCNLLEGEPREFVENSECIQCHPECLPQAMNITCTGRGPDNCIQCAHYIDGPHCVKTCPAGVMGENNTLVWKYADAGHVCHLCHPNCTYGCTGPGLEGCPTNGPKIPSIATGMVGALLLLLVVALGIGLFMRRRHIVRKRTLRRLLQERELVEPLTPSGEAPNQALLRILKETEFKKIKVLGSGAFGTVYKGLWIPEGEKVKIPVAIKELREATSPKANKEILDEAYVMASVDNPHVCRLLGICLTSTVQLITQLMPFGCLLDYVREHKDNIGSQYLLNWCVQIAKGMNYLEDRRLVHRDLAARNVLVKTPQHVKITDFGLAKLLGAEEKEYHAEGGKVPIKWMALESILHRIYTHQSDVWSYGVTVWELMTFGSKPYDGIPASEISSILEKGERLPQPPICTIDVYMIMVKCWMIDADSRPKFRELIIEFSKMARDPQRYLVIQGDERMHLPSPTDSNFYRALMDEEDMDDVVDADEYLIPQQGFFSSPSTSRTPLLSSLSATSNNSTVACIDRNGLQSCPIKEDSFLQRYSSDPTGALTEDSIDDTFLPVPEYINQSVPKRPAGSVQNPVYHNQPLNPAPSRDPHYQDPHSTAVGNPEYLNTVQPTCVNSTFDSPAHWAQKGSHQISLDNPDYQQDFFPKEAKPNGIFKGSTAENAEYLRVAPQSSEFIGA
T16 sequence (P06241 whole entry): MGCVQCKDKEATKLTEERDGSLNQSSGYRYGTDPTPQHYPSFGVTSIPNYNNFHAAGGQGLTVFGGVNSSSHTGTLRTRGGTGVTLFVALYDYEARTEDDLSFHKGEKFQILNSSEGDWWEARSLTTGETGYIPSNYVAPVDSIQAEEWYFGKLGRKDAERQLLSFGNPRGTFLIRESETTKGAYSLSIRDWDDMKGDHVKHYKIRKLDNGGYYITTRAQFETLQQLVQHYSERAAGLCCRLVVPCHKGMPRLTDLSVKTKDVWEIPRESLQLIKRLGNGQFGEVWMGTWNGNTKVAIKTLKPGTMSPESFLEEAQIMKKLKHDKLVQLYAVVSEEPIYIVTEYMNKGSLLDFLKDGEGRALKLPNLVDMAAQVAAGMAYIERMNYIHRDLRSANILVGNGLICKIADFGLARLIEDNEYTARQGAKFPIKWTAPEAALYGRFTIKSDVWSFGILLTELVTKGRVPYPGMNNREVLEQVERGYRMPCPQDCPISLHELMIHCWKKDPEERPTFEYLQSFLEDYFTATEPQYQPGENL
T22 sequence (P35968 20-1356): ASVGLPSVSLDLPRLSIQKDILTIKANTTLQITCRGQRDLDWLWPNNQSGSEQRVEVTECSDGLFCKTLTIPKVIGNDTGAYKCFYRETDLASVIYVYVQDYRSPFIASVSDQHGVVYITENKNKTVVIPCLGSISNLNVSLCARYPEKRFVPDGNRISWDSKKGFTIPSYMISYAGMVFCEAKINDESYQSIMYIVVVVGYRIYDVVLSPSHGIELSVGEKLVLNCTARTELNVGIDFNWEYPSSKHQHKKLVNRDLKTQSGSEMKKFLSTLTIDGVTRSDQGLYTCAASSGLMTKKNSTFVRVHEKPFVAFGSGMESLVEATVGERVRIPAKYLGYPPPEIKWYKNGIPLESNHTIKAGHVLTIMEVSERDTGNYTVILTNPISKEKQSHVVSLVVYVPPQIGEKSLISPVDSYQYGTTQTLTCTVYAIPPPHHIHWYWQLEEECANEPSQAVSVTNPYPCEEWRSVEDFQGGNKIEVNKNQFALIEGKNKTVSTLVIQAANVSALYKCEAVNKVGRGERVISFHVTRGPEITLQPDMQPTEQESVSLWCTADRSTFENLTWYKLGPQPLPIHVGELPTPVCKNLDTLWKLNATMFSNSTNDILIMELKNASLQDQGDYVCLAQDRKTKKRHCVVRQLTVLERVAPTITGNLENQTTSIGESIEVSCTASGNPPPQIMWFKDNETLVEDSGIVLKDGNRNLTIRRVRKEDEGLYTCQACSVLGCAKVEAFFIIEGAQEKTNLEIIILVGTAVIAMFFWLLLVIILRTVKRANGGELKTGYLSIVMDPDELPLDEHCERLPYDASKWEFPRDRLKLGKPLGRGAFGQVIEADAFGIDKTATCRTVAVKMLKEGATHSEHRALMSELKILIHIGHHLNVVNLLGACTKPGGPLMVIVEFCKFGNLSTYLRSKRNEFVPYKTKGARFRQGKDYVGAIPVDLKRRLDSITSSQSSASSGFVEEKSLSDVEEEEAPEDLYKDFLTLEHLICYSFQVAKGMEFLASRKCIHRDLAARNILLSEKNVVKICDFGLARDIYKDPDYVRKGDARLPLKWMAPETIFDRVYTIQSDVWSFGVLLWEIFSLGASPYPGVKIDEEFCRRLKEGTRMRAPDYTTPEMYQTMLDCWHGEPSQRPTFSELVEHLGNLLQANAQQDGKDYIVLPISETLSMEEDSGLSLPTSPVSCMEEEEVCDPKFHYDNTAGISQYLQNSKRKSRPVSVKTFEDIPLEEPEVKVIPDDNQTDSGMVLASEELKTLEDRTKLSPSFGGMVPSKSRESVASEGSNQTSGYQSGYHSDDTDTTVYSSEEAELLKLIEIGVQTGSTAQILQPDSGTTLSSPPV
T8 sequence (P53355 whole entry): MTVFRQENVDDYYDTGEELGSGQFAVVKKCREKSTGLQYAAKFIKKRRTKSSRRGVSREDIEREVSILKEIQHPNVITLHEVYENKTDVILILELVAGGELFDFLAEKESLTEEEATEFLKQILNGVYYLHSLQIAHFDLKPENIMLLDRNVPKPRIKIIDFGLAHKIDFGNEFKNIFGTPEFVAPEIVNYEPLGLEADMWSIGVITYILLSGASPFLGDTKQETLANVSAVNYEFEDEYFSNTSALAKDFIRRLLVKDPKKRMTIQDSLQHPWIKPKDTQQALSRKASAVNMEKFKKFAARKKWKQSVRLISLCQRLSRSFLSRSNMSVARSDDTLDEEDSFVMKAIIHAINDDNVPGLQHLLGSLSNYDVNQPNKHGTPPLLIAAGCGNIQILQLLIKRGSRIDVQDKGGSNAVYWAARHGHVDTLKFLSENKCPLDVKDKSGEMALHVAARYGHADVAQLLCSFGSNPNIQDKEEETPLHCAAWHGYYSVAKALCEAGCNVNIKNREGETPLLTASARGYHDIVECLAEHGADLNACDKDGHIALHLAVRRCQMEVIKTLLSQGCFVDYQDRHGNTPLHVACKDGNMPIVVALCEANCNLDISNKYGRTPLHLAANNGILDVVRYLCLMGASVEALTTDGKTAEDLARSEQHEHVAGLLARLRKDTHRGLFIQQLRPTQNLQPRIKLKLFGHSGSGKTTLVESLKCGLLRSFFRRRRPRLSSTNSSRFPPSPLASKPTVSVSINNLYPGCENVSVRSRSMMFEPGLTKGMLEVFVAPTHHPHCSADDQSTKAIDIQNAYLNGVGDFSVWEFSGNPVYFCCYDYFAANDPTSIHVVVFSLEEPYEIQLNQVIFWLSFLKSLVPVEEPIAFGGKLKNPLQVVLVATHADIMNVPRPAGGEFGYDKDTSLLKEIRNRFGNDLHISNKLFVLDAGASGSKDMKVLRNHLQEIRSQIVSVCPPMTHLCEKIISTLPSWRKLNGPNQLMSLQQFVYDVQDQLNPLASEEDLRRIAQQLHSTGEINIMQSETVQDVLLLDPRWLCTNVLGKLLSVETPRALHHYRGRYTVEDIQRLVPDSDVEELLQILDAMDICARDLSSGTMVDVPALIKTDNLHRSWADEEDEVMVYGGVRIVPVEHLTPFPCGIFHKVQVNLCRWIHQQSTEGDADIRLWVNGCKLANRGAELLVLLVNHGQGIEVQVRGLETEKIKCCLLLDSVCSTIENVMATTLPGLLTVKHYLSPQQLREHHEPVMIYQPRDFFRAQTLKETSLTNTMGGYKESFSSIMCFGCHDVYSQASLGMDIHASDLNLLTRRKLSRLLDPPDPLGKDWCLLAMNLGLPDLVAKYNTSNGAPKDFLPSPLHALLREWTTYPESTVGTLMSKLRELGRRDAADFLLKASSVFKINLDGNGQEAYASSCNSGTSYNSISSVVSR

Compound: Cc1cc(O)cc(-c2nn(CC#N)cc2-c2cc(NC[C@H](C)O)nc(-c3cccnc3)n2)c1 [Example 10, [4-[6-(2(S)-hydroxypropylamino)-2-pyridin-3-yl-pyrimidin-4-yl]-3-(3-hydroxy-5-methylphenyl)-pyrazol-1-yl]acetonitrile]
- inhibition at 10 µM (ABL1): 20.4%
- activity at 10 µM (ABL1; [1]): 79.6%
- inhibition at 10 µM (AKT1 (dPH, S473D)): -2.97%
- activity at 10 µM (AKT1 (dPH, S473D); [1]): 103%
- inhibition at 10 µM (Aurora A): 21.8%
- activity at 10 µM (Aurora A; [1]): 78.2%
- inhibition at 10 µM (BRAF): 8.97%
- activity at 10 µM (BRAF; [1]): 91%
- inhibition at 10 µM (CDK1/cyclinB): 3.64%
- activity at 10 µM (CDK1/cyclinB; [1]): 96.4%
- inhibition at 10 µM (CHK1): 2.36%
- activity at 10 µM (CHK1; [1]): 97.6%
- inhibition at 10 µM (CK1epsilon): 9.32%
- activity at 10 µM (CK1epsilon; [1]): 90.7%
- inhibition at 10 µM (DAPK1): -1.17%
- activity at 10 µM (DAPK1; [1]): 101%
- inhibition at 10 µM (DNA-PK): 6.56%
- activity at 10 µM (DNA-PK; [1]): 93.4%
- inhibition at 10 µM (EGFR): -2.23%
- activity at 10 µM (EGFR; [1]): 102%
- inhibition at 10 µM (EPHA1): 23.3%
- activity at 10 µM (EPHA1; [1]): 76.7%
- inhibition at 10 µM (FAK/PTK2): 3.43%
- activity at 10 µM (FAK/PTK2; [1]): 96.6%
- inhibition at 10 µM (FGFR1): -8.05%
- activity at 10 µM (FGFR1; [1]): 108%
- inhibition at 10 µM (FGR): 3.34%
- activity at 10 µM (FGR; [1]): 96.7%
- inhibition at 10 µM (FLT1): -1.67%
- activity at 10 µM (FLT1; [1]): 102%
- inhibition at 10 µM (FYN): -7.86%
- activity at 10 µM (FYN; [1]): 108%
- inhibition at 10 µM (HIPK1): -3.43%
- activity at 10 µM (HIPK1; [1]): 103%
- inhibition at 10 µM (IKKa/CHUK): 1.37%
- activity at 10 µM (IKKa/CHUK; [1]): 98.6%
- inhibition at 10 µM (IR): 7.01%
- activity at 10 µM (IR; [1]): 93%
- inhibition at 10 µM (JAK1): 9.15%
- activity at 10 µM (JAK1; [1]): 90.8%
- inhibition at 10 µM (JNK1a1): 3.83%
- activity at 10 µM (JNK1a1; [1]): 96.2%
- inhibition at 10 µM (KDR/VEGFR2): -5.84%
- activity at 10 µM (KDR/VEGFR2; [1]): 106%
- inhibition at 10 µM (LCK): 10.3%
- activity at 10 µM (LCK; [1]): 89.7%
